Among the data in ChEMBL document CHEMBL1862790, “Optimisation of fenarimol series for the treatment of Chagas disease” are IC90 and IC50 values, retold here.

Series [1] deals with Trypanosoma cruzi. Briefly: microbe, parasite or virus in culture. In kind it is functional, Tulahuen LacZ, Clone C4. Particulars: Trypanosoma cruzi, Tulahuen LacZ, Clone C4.
Series [2] in a line: DNDI: Cytotoxicity against L-6 rat myoblasts from skeletal muscle cells. Particulars: L6 rat skeletal muscle myoblast cells.
The test system of series [3] is Trypanosoma cruzi. Briefly: microbe, parasite or virus in culture. The class given is functional, organism-based, Tulahuen LacZ, Clone C4. Particulars: Trypanosoma cruzi, Tulahuen LacZ, Clone C4.

In general, IC90 refers to the concentration needed for an effect of 90%. Higher therefore signals weaker potency. The term IC50 denotes the midpoint of a concentration-inhibition curve. A lower IC50 goes with inhibition by little substance. In the series with Trypanosoma cruzi [1], `O=S(=O)(c1ccc(Cl)cc1)N1CCN(C(c2cncnc2)c2ccc(Cl)cc2F)CC1` (centres undefined) displayed an IC90 of 110 nM. Besides, the IC50 in series [2] (IC50) was greater than 100000 nM; with Trypanosoma cruzi [3] it was 60 nM.
Taken in the same sequence, the figures for `O=C(NC1CCCC1)c1cccc(C(O)(c2ccc(Cl)cc2)c2cccnc2)c1` (centres undefined) were 320 nM, 60800 nM and 150 nM.
`O=C(NC1CCN(C(c2ccc(C(F)(F)F)cc2)c2cnccn2)CC1)c1ccc(C(F)(F)F)cc1` (centres undefined) showed an IC90 in the series on Trypanosoma cruzi [1] of 300 nM. Further, the values for the concentration for half-maximal inhibition (IC50) (in series [2] (IC50); in the series with Trypanosoma cruzi [3]) were 57400 nM and 100 nM, respectively.
As to `O=C(c1ccc(C(F)(F)F)cc1)N1CCC(NC(c2ccc(C(F)(F)F)cc2)c2cnccn2)CC1` (centres undefined), the 90% effect level with Trypanosoma cruzi [1] (IC90) was put at 270 nM. Moreover, the IC50 in series [2] (IC50) was determined as 39900 nM; in the series with Trypanosoma cruzi [3] it was 82 nM.
Take `O=S(=O)(c1ccc(C(F)(F)F)cc1)N1CCN(C(c2ccc(Cl)cc2)c2cccnc2)CC1` (centres undefined): it took 180 nM to reach the 90% level with Trypanosoma cruzi [1] (IC90). In addition, the figures for the IC50 (in series [2] (IC50); in the series with Trypanosoma cruzi [3]) were 51400 nM and 55 nM, respectively.
The like results for `O=S(=O)(C1CCCCC1)N1CCN(C(c2cncnc2)c2ccc(Cl)cc2F)CC1` (centres undefined) were, in that order, 38 nM, 61300 nM and 18 nM.
The like results for `O=S(=O)(c1ccc(C(F)(F)F)cc1)N1CCC(NC(c2cnccn2)c2ccc(F)cc2F)CC1` (centres undefined) were, in that order, 820 nM, 62700 nM and 360 nM.
Regarding `O=S(=O)(Cc1ccccc1)N1CCN(C(c2cncnc2)c2ccc(Cl)cc2F)CC1` (centres undefined), the concentration for an effect of 90% (IC90) in the series with Trypanosoma cruzi [1] worked out at 180 nM. In addition, the 50% inhibitory concentration (IC50) in series [2] (IC50) came to 62400 nM; with Trypanosoma cruzi [3], 72 nM.
In the case of `CC(C)c1ccc(S(=O)(=O)N2CCN(C(c3cncnc3)c3ccc(Cl)cc3F)CC2)cc1` (centres undefined), the IC90 in the series with Trypanosoma cruzi [1] worked out at 36 nM. Also, the 50% inhibitory concentration (IC50) in series [2] (IC50) is greater than 100000 nM; in the series on Trypanosoma cruzi [3] it was 18 nM.
The like results for `O=S(=O)(c1ccc(C(F)(F)F)cc1)N1CCC(NC(c2ccc(C(F)(F)F)cc2)c2cnccn2)CC1` (centres undefined) were, in that order, 290 nM, 40900 nM and 130 nM.
Take `CC(C)CS(=O)(=O)N1CCC(NC(c2cnccn2)c2ccc(F)cc2F)CC1` (centres undefined): the 90% effect level with Trypanosoma cruzi [1] (IC90) was put at 960 nM. Moreover, the values for the IC50 (in series [2] (IC50); in the series on Trypanosoma cruzi [3]) were greater than 100000 nM and 560 nM, respectively.
The like results for `O=C(NC1CCCCC1)c1cccc(C(O)(c2ccc(Cl)cc2)c2cccnc2)c1` (centres undefined) were, in that order, 210 nM, 52300 nM and 60 nM.
Taken in the same sequence, the figures for `CC(C)CNC(=O)c1cccc(C(O)(c2ccc(Cl)cc2)c2cccnc2)c1` (centres undefined) were 300 nM, 60500 nM and 98 nM.
Taken in the same sequence, the figures for `CON(C)C(=O)c1cccc(C(O)(c2ccc(Cl)cc2)c2cccnc2)c1` (centres undefined) were 130 nM, greater than 100000 nM and 38 nM.
Regarding `O=S(=O)(c1ccc(Cl)cc1)N1CCC(NC(c2cnccn2)c2ccc(F)cc2F)CC1` (centres undefined), in the series on Trypanosoma cruzi [1], the 90% effect level (IC90) was put at 900 nM. For the same compound, the IC50 in series [2] (IC50) was determined as 77900 nM; in the series with Trypanosoma cruzi [3] it was 530 nM.
Taken in the same sequence, the figures for `O=C(c1ccccc1)N1CCN(C(c2cncnc2)c2ccc(Cl)cc2F)CC1` (centres undefined) were 580 nM, greater than 100000 nM and 220 nM.
The compound `O=C(Cc1ccccc1)N1CCN(C(c2ccc(Cl)cc2)c2cncnc2)CC1` (centres undefined) came in with a concentration for an effect of 90% (IC90) in the series with Trypanosoma cruzi [1] of 850 nM. Further, the IC50 in series [2] was 69500 nM; in the series with Trypanosoma cruzi [3], 500 nM.
For the compound `CNC(=O)c1cccc(C(O)(c2ccc(Cl)cc2)c2cccnc2)c1` (centres undefined), in the series on Trypanosoma cruzi [1], the IC90 came out at 995 nM. In addition, the IC50 in series [2] (IC50) was greater than 100000 nM; in the series with Trypanosoma cruzi [3], 590 nM.
Taken in the same sequence, the figures for `CN(C)C(=O)N1CCN(C(c2cncnc2)c2ccc(Cl)cc2F)CC1` (centres undefined) were 940 nM, greater than 100000 nM and 480 nM.
Compound `CC(C)S(=O)(=O)N1CCN(C(c2ccc(Cl)cc2)c2cccnc2)CC1` (centres undefined) had an IC90 with Trypanosoma cruzi [1] of 88 nM. The half-inhibitory concentration (IC50) in series [2] (IC50) was greater than 100000 nM; in the series on Trypanosoma cruzi [3], 28 nM.
The like results for `CC(C)S(=O)(=O)N1CCC(NC(c2cnccn2)c2ccc(F)cc2F)CC1` (centres undefined) were, in that order, 790 nM, greater than 100000 nM and 340 nM.
Taken in the same sequence, the figures for `O=C(NC1CCN(C(c2cnccn2)c2ccc(F)cc2F)CC1)C1CC1` (centres undefined) were greater than 1000 nM, greater than 100000 nM and greater than 1000 nM.
The like results for `CN(C)C(=O)N1CCN(C(c2ccc(Cl)cc2)c2cncnc2)CC1` (centres undefined) were, in that order, greater than 1000 nM, greater than 100000 nM and 620 nM.
With `CCS(=O)(=O)N1CCC(NC(c2ccc(C(F)(F)F)cc2)c2cnccn2)CC1` (centres undefined), in the series with Trypanosoma cruzi [1], the IC90 is 880 nM. Also, the IC50 is greater than 100000 nM in series [2] (IC50) and 490 nM in the series with Trypanosoma cruzi [3].
The like results for `O=S(=O)(Cc1ccccc1)N1CCN(C(c2ccc(Cl)cc2)c2cccnc2)CC1` (centres undefined) were, in that order, 140 nM, 57700 nM and 32 nM.
Taken in the same sequence, the figures for `CC(C)C(=O)N1CCC(NC(c2ccc(C(F)(F)F)cc2)c2cnccn2)CC1` (centres undefined) were 490 nM, greater than 100000 nM and 230 nM.
Taken in the same sequence, the figures for `CC(C)S(=O)(=O)NC1CCN(C(c2ccc(C(F)(F)F)cc2)c2cnccn2)CC1` (centres undefined) were 940 nM, greater than 100000 nM and 560 nM.
`O=C(C1CCCCC1)N1CCN(C(c2cncnc2)c2ccc(Cl)cc2F)CC1` (centres undefined) came in with an IC90 with Trypanosoma cruzi [1] of 300 nM. In addition, the IC50 is greater than 100000 nM in series [2] (IC50) and 150 nM with Trypanosoma cruzi [3].
Compound `CN(C)C(=O)N1CCC(NC(c2cnccn2)c2ccc(F)cc2F)CC1` (centres undefined) returned an IC90 with Trypanosoma cruzi [1] greater than 1000 nM. Moreover, the IC50 in series [2] (IC50) was greater than 100000 nM; with Trypanosoma cruzi [3], greater than 1000 nM.
Compound `O=C(c1ccc(C(F)(F)F)cc1)N1CCN(C(c2ccc(Cl)cc2)c2cncnc2)CC1` (centres undefined) displayed an IC90 in the series on Trypanosoma cruzi [1] of 320 nM. In addition, the values for the IC50 (in series [2] (IC50); in the series on Trypanosoma cruzi [3]) were 54100 nM and 150 nM, respectively.
The like results for `O=C(Cc1ccccc1)N1CCC(NC(c2cnccn2)c2ccc(F)cc2F)CC1` (centres undefined) were, in that order, 820 nM, greater than 100000 nM and 360 nM.
On to `CC(C)CC(=O)N1CCN(C(c2ccc(Cl)cc2)c2cncnc2)CC1` (centres undefined), for which, in the series with Trypanosoma cruzi [1], the 90% effect concentration (IC90) was 910 nM. Further, the figures for the 50% inhibitory concentration (IC50) (in series [2] (IC50); with Trypanosoma cruzi [3]) were greater than 100000 nM and 430 nM, respectively.
Taken in the same sequence, the figures for `CC(C)CS(=O)(=O)N1CCN(C(c2ccc(Cl)cc2)c2cncnc2)CC1` (centres undefined) were 200 nM, 92700 nM and 62 nM.
Taken in the same sequence, the figures for `CCC(=O)N1CCC(NC(c2ccc(C(F)(F)F)cc2)c2cnccn2)CC1` (centres undefined) were greater than 1000 nM, greater than 100000 nM and greater than 1000 nM.
Take `CC(C)N(C(=O)c1cccc(C(O)(c2ccc(Cl)cc2)c2cccnc2)c1)C(C)C` (centres undefined): the IC90 in the series on Trypanosoma cruzi [1] came to 56 nM. Also, the 50% inhibitory concentration (IC50) came to 54700 nM in series [2] (IC50) and 14 nM with Trypanosoma cruzi [3].
The like results for `CN(C)C(=O)N1CCC(NC(c2ccc(C(F)(F)F)cc2)c2cnccn2)CC1` (centres undefined) were, in that order, 920 nM, greater than 100000 nM and 500 nM.
Taken in the same sequence, the figures for `O=C(NCCN1CCOCC1)c1cccc(C(O)(c2ccc(Cl)cc2)c2cccnc2)c1` (centres undefined) were 950 nM, greater than 100000 nM and 500 nM.
Taken in the same sequence, the figures for `O=C(NC1CCN(C(c2ccc(C(F)(F)F)cc2)c2cnccn2)CC1)c1ccc(Cl)cc1` (centres undefined) were 230 nM, 52900 nM and 78 nM.
In the series with Trypanosoma cruzi [1], `CCC(=O)N1CCC(NC(c2cnccn2)c2ccc(F)cc2F)CC1` (centres undefined) came in with an IC90 greater than 1000 nM. Besides, the IC50 in series [2] (IC50) was greater than 100000 nM; in the series on Trypanosoma cruzi [3], greater than 1000 nM.
`O=C(c1cccc(C(O)(c2ccc(Cl)cc2)c2cccnc2)c1)N1CCOCC1` (centres undefined) had an IC90 in the series with Trypanosoma cruzi [1] of 120 nM. For the same compound, the values for the IC50 (in series [2] (IC50); with Trypanosoma cruzi [3]) were greater than 100000 nM and 34 nM, respectively.
Regarding `CC(C)c1ccc(S(=O)(=O)N2CCN(C(c3ccc(Cl)cc3)c3cncnc3)CC2)cc1` (centres undefined), the IC90 in the series with Trypanosoma cruzi [1] worked out at 78 nM. The concentration for half-maximal inhibition (IC50) in series [2] (IC50) was 46100 nM; in the series on Trypanosoma cruzi [3], 24 nM.
The like results for `O=C(Cc1ccccc1)NC1CCN(C(c2ccc(C(F)(F)F)cc2)c2cnccn2)CC1` (centres undefined) were, in that order, 370 nM, greater than 100000 nM and 190 nM.
Taken in the same sequence, the figures for `O=C(c1ccccc1)N1CCN(C(c2ccc(Cl)cc2)c2cncnc2)CC1` (centres undefined) were 950 nM, 75500 nM and 500 nM.
The like results for `CCC(=O)N1CCN(C(c2cncnc2)c2ccc(Cl)cc2F)CC1` (centres undefined) were, in that order, 860 nM, greater than 100000 nM and 440 nM.
Regarding `O=S(=O)(c1ccc(C(F)(F)F)cc1)N1CCN(C(c2cncnc2)c2ccc(Cl)cc2F)CC1` (centres undefined), in the series with Trypanosoma cruzi [1], the 90% effect level (IC90) was put at 220 nM. Moreover, the concentration for half-maximal inhibition (IC50) came out at 74700 nM in series [2] (IC50) and 76 nM with Trypanosoma cruzi [3].
The like results for `O=S(=O)(NC1CCN(C(c2ccc(C(F)(F)F)cc2)c2cnccn2)CC1)C1CCCCC1` (centres undefined) were, in that order, 780 nM, 57900 nM and 280 nM.
Taken in the same sequence, the figures for `O=S(=O)(Cc1ccccc1)N1CCC(NC(c2cnccn2)c2ccc(F)cc2F)CC1` (centres undefined) were 400 nM, greater than 100000 nM and 190 nM.
Taken in the same sequence, the figures for `O=C(c1ccc(Cl)cc1)N1CCC(NC(c2cnccn2)c2ccc(F)cc2F)CC1` (centres undefined) were 700 nM, greater than 100000 nM and 260 nM.
In the series with Trypanosoma cruzi [1], `CC(C)CC(=O)NC1CCN(C(c2ccc(C(F)(F)F)cc2)c2cnccn2)CC1` (centres undefined) returned an IC90 of 700 nM. In addition, the IC50 in series [2] (IC50) was greater than 100000 nM; with Trypanosoma cruzi [3] it was 280 nM.
The like results for `CC(C)c1ccc(S(=O)(=O)N2CCC(NC(c3ccc(C(F)(F)F)cc3)c3cnccn3)CC2)cc1` (centres undefined) were, in that order, 270 nM, 22000 nM and 100 nM.
The like results for `CC(C)S(=O)(=O)N1CCC(NC(c2ccc(C(F)(F)F)cc2)c2cnccn2)CC1` (centres undefined) were, in that order, 570 nM, greater than 100000 nM and 220 nM.
Taken in the same sequence, the figures for `CC(C)C(=O)NC1CCN(C(c2ccc(C(F)(F)F)cc2)c2cnccn2)CC1` (centres undefined) were 940 nM, greater than 100000 nM and 560 nM.
`CC(C)S(=O)(=O)N1CCN(C(c2cncnc2)c2ccc(Cl)cc2F)CC1` (centres undefined): in the series on Trypanosoma cruzi [1], the IC90 was found to be 330 nM. For the same compound, the values for the IC50 (in series [2] (IC50); in the series on Trypanosoma cruzi [3]) were greater than 100000 nM and 120 nM, respectively.
